Measurements reported in patent US6391576B1, “Method for isolating a microbe” (Japan Bioindustry Association, priority 1999, dated 2002).

System: microorganisms in the activated sludge
Assay: Colony formation on NUTRIENT BROTH agar plates inoculated with activated sludge cell dispersion
Format: cell-based
Conditions: 30° C.; for Growth of the microorganisms in the activated sludge (in words): 0.1 w/w % on plate
Experimental: Ten ml of activated sludge obtained from a food manufacturer's factory were filtered through gauze. The filtered activated sludge was stirred, subjected to ultra-sonics, added with a saline solution, and further stirred to allow cells to disperse well in the filtered activated sludge. The cell dispersion was diluted with a saline solution to 3×10^4 cells/ml as determined by staining with 6-carboxy-fluorescein diacetate (J. Porter et al. J. Appl. Bacteriol., Vol. 79, 399-408 (1995)).
The medium used was NUTRIENT BROTH (DIFICO), an 1:3 mixture of Bact Beef® and Bact Peptone®) added with 0.2% glucose and 2% agar. The medium was heat-sterilized and allowed to coagulate in plates. The plates were added with 0.1 w/w % of the compound shown in Table 3 and inoculated with 0.1 ml of the cell dispersion solution, and incubated at 30° C. After 2 or 10 days incubation, the number of colonies formed on the plates was counted.

[1] = 0.1 w/w % cyclodextrin compound on plate, 0.1 ml cell dispersion
[2] = 0.1 w/w % polysaccharide on plate

Compound: OC[C@H]1O[C@@H]2O[C@H]3[C@H](O)[C@@H](O)[C@@H](O[C@H]4[C@H](O)[C@@H](O)[C@@H](O[C@H]5[C@H](O)[C@@H](O)[C@@H](O[C@H]6[C@H](O)[C@@H](O)[C@@H](O[C@H]7[C@H](O)[C@@H](O)[C@@H](O[C@H]1[C@H](O)[C@H]2O)O[C@@H]7CO)O[C@@H]6CO)O[C@@H]5CO)O[C@@H]4CO)O[C@@H]3CO [α-Cyclodextrin]
- Colony/plate formed after incubation of 2 days [1]: 120 Colony/plate
- Colony/plate formed after incubation of 10 days [1]: 320 Colony/plate

Compound: Glycogen
- Colony/plate formed after incubation of 2 days [2]: 210 Colony/plate
- Colony/plate formed after incubation of 10 days [2]: 830 Colony/plate

Compound: OC[C@H]1O[C@@H]2O[C@H]3[C@H](O)[C@@H](O)[C@@H](O[C@H]4[C@H](O)[C@@H](O)[C@@H](O[C@H]5[C@H](O)[C@@H](O)[C@@H](O[C@H]6[C@H](O)[C@@H](O)[C@@H](O[C@H]7[C@H](O)[C@@H](O)[C@@H](O[C@H]8[C@H](O)[C@@H](O)[C@@H](O[C@H]1[C@H](O)[C@H]2O)O[C@@H]8CO)O[C@@H]7CO)O[C@@H]6CO)O[C@@H]5CO)O[C@@H]4CO)O[C@@H]3CO [β-Cyclodextrin]
- Colony/plate formed after incubation of 2 days [1]: 105 Colony/plate
- Colony/plate formed after incubation of 10 days [1]: 350 Colony/plate

Compound: Cellulose
- Colony/plate formed after incubation of 2 days [2]: 244 Colony/plate
- Colony/plate formed after incubation of 10 days [2]: 685 Colony/plate

Compound: 2-Hydroxypropyl-β-cyclodextrin
- Colony/plate formed after incubation of 2 days [1]: 270 Colony/plate
- Colony/plate formed after incubation of 10 days [1]: 710 Colony/plate
- Growth of the microorganisms in the activated sludge (in words): promoted the growth

Compound: Glucomannan
- Colony/plate formed after incubation of 2 days [2]: 190 Colony/plate
- Colony/plate formed after incubation of 10 days [2]: 650 Colony/plate

Compound: Dextran
- Colony/plate formed after incubation of 2 days [2]: 146 Colony/plate
- Colony/plate formed after incubation of 10 days [2]: 350 Colony/plate

Compound: Curdlan
- Colony/plate formed after incubation of 2 days [2]: 220 Colony/plate
- Colony/plate formed after incubation of 10 days [2]: 745 Colony/plate

Compound: COC[C@H]1O[C@@H]2O[C@H]3[C@H](O)[C@@H](OC)[C@@H](O[C@H]4[C@H](O)[C@@H](OC)[C@@H](O[C@H]5[C@H](O)[C@@H](OC)[C@@H](O[C@H]6[C@H](O)[C@@H](OC)[C@@H](O[C@H]7[C@H](O)[C@@H](OC)[C@@H](O[C@H]8[C@H](O)[C@@H](OC)[C@@H](O[C@H]1[C@H](O)[C@H]2OC)O[C@@H]8COC)O[C@@H]7COC)O[C@@H]6COC)O[C@@H]5COC)O[C@@H]4COC)O[C@@H]3COC [2,6-Di-O-methyl-β-cyclodextrin]
- Colony/plate formed after incubation of 2 days [1]: 520 Colony/plate
- Colony/plate formed after incubation of 10 days [1]: 1,060 Colony/plate
- Growth of the microorganisms in the activated sludge (in words): promoted the growth

Compound: Pullulan
- Colony/plate formed after incubation of 2 days [2]: 180 Colony/plate
- Colony/plate formed after incubation of 10 days [2]: 600 Colony/plate

Compound: COC[C@H]1O[C@@H]2O[C@H]3[C@H](OC)[C@@H](OC)[C@@H](O[C@H]4[C@H](OC)[C@@H](OC)[C@@H](O[C@H]5[C@H](OC)[C@@H](OC)[C@@H](O[C@H]6[C@H](OC)[C@@H](OC)[C@@H](O[C@H]7[C@H](OC)[C@@H](OC)[C@@H](O[C@H]8[C@H](OC)[C@@H](OC)[C@@H](O[C@H]1[C@H](OC)[C@H]2OC)O[C@@H]8COC)O[C@@H]7COC)O[C@@H]6COC)O[C@@H]5COC)O[C@@H]4COC)O[C@@H]3COC [2,3,6-Tri-O-methyl-β-cyclodextrin]
- Colony/plate formed after incubation of 2 days [1]: 220 Colony/plate
- Colony/plate formed after incubation of 10 days [1]: 650 Colony/plate
- Growth of the microorganisms in the activated sludge (in words): promoted the growth

Compound: OC[C@H]1O[C@@H]2O[C@H]3[C@H](O)[C@@H](O)[C@@H](O[C@H]4[C@H](O)[C@@H](O)[C@@H](O[C@H]5[C@H](O)[C@@H](O)[C@@H](O[C@H]6[C@H](O)[C@@H](O)[C@@H](O[C@H]7[C@H](O)[C@@H](O)[C@@H](O[C@H]8[C@H](O)[C@@H](O)[C@@H](O[C@H]9[C@H](O)[C@@H](O)[C@@H](O[C@H]1[C@H](O)[C@H]2O)O[C@@H]9CO)O[C@@H]8CO)O[C@@H]7CO)O[C@@H]6CO)O[C@@H]5CO)O[C@@H]4CO)O[C@@H]3CO [γ-Cyclodextrin]
- Colony/plate formed after incubation of 2 days [1]: 210 Colony/plate
- Colony/plate formed after incubation of 10 days [1]: 640 Colony/plate
- Growth of the microorganisms in the activated sludge (in words): promoted the growth
